{"source": "patent US8715754B2", "about": "“Chromobacterium bioactive compositions and metabolites” (Marrone Bio Innovations, Inc., priority 2010, dated 2014)", "key": {"[1]": {"system": "Cabbage Loopers, Trichoplusia ni", "experiment": "Synergy test on treated artificial diet, cabbage loopers", "type": "in vivo", "experimental": "(§1) Synergy tests were performed by treating artificial diet in 96-well plates and feeding treated diet to neonate larvae. 100 μL of treatment were pipetted into multiple wells of each plate. […] The diet was fan-dried to remove excess moisture. Neonate Beet Armyworm, Spodoptera exigua, or Cabbage Loopers, Trichoplusia ni, were transferred into each well of the multi-well plate. Infested plates were covered with adhesive plate sealer and a single small hole was poked into the sealer over each well to allow for aeration. Plates were stored in an incubator at 26° C., 16 h light/8 h dark cycle for […]. On the third and fourth day after infesting, mortality was scored.\n(§2) The determination of a synergistic, antagonistic, or additive interaction was determined using the methods from (Colby 1967). Due to variation in bioassays, it was determined that ratios between 0 and 0.9 would be considered antagonistic, 0.9-1.1 ratios would be additive, and ratios above 1.1 would be considered synergistic relationships.\n(§3) MBI-203 synergy with insecticides against Cabbage Loopers was tested. Chlorantranilipole (marketed as Coragen®, Dupont), Bacillus thuringiensis var. kurstaki (Dipel®, Valent Biosciences), Spinosad (marketed as Entrust®, Dow Agro Sciences), Spirotetramet (marketed as Movento®, Bayer Crop Science) and Pyrethrum/pyrethrins (marketed as Pyganic®, Arbico Organics) were tested with MBI-203. As noted above, except where indicated, LC50 concentrations of MBI-203 and insecticides were used."}, "[2]": {"system": "Beet Armyworm, Spodoptera exigua", "experiment": "Synergy test on treated artificial diet, beet armyworm", "type": "in vivo", "experimental": "as §1, §2\nas §3, with “Beet Army Worm (BAW)” for “Cabbage Loopers”, “used. […] Pyrethrum combinations with MBI-203 were antagonistic.” for “used.”"}, "[3]": {"system": "Cabbage looper (Trichoplusia ni) or Beet armyworm (Spodoptera exigua)", "experiment": "Screening of fractions and pure compounds in feeding assay", "type": "in vivo", "details": "HPLC-purified compounds", "experimental": "The culture broth derived from the 10-L fermentation C. substugae in L-broth is extracted with Amberlite XAD-7 resin (Asolkar et al., 2006) by shaking the cell suspension with resin at 225 rpm for two hours at room temperature. The resin and cell mass are collected by filtration through cheesecloth and washed with DI water to remove salts. The resin, cell mass, and cheesecloth are then soaked for 2 h in acetone/methanol (50/50) after which the acetone/methanol is filtered and dried under vacuum using rotary evaporator to give the crude extract. The crude extract is then fractionated by using Sephadex LH 20 size exclusion chromatography (CH2Cl2/CH3OH; 50/50) to give 7 fractions (FIG. 1). These fractions are then concentrated to dryness using rotary evaporator and the resulting dry residues are screened for biological activity using a feeding assay with Cabbage looper (Trichoplusia ni) or Beet armyworm (Spodoptera exigua). The active fractions are then subjected to reversed phase HPLC (Spectra System P4000 (Thermo Scientific) to give pure compounds, which are then screened in above mentioned bioassays to locate/identify the active compounds. To confirm the identity of the compound, additional spectroscopic data such as LC/MS and NMR is recorded."}, "[4]": {"system": "root knot nematode Meloidogyne sp.", "experiment": "Mini drench test, root galling of cucumber (Zeck's gall index)", "type": "in vivo, Meloidogyne incognita", "details": "20 ppm", "experimental": "MBI-203 was tested for its intrinsic activity against the root knot nematode Meloidogyne sp. in two mini drench tests.\nSpecifically MBI-203 was tested in a greenhouse assay conducted in 45 ml pots. Cucumber seeds cv. Toshka were sown directly into pots filled with a sandy loam soil. Ten days later pots were each treated with 5 ml of a suspension. Hereafter, pots were inoculated with 3000 eggs of M. incognita. Four replicates were prepared for each treatment and rate. The trial was harvested fourteen days after trial application and inoculation. Root galling was assessed according to Zeck's gall index (Zeck, 1971). Specific conditions are set forth below in Table 3."}, "[5]": {"system": "Cabbage Looper (Trichoplusia ni)", "experiment": "whole plant or invertebrate", "type": "in vivo", "experimental": "Toxicity of the compound of interest in fraction 1 (F1) was confirmed in an in vitro assay using 1st instar cabbage looper larvae as a test object.\nTwo hundred microliters of commercial cabbage looper diet was distributed in each well of a 96-well microplate. After the diet had solidified, 100 uL of solution containing 50 uL of extract (corresponding to four individual peaks found in fraction 1; H1-H4), 350 uL EtOH and 600 uL sterile DI water was pipetted in each well, after which the plate was dried using a hand-held fan. The amount of extract in each well was 10 micrograms. Each treatment was replicated eight times, and a mixture of pure ethanol and water was used as a negative control.\nOne test insect (1st instar larvae of cabbage looper) was placed in each well, and the plate was covered with an adhesive seal. The seal was punctured for aeration, and the sealed plate was incubated at 26° C. for four days.\nThe 96-well plate assay system described in the previous example was used to determine the concentration of pure violacein needed to kill 50% of the 1st instar cabbage looper larvae. Based on the data, violacein is a potent insecticide with an estimated LC50 value of 7*10^−6 micrograms per well for cabbage looper larvae in an in vitro diet-overlay assay."}, "[6]": {"details": "Trichoplusia ni, 96 h, read-out: % mortality Day 4"}}}
{"molecule": "Spinosad", "values": [{"measurement": "Product alone Kill %", "setting": "[1]; LC50 concentration", "value": 54.3, "unit": "%"}, {"measurement": "Product alone Kill %", "setting": "[2]; LC50 concentration", "value": 68.7, "unit": "%"}]}
{"molecule": "chromamide A", "values": [{"measurement": "activity in feeding bioassay (active compound)", "setting": "[3]", "value": "active"}]}
{"molecule": "O=C1NC(c2c[nH]c3ccccc23)=C/C1=C1\\C(=O)Nc2ccccc21", "note": "[deoxyviolacein (3), deoxyviolacein]", "values": [{"measurement": "activity in feeding bioassay (active compound)", "setting": "[3]", "value": "active"}]}
{"molecule": "CCOP(=O)(SC(C)CC)N1CCSC1=O", "note": "(stereo not shown) [Fosthiazate]", "values": [{"measurement": "control", "setting": "[4]; Mini drench test no. 1", "value": 100, "unit": "%"}, {"measurement": "control", "setting": "[4]; Mini drench test no. 2", "value": 100, "unit": "%"}]}
{"molecule": "O=C1NC(c2c[nH]c3ccc(O)cc23)=C/C1=C1\\C(=O)Nc2ccccc21", "note": "(single isomer, unassigned) [Violacein, violacein]", "values": [{"measurement": "activity in feeding bioassay (active compound)", "setting": "[3]", "value": "active"}, {"measurement": "mortality at 1e-06 µg/disc", "setting": "[5]; [6]", "value": 14.2, "unit": "%"}, {"measurement": "mortality at 1e-05 µg/disc", "setting": "[5]; [6]", "value": 71.4, "unit": "%"}, {"measurement": "mortality at 0.0001 µg/disc", "setting": "[5]; [6]", "value": 100, "unit": "%"}, {"measurement": "mortality at 0.001 µg/disc", "setting": "[5]; [6]", "value": 100, "unit": "%"}, {"measurement": "mortality at 0.01 µg/disc", "setting": "[5]; [6]", "value": 100, "unit": "%"}, {"measurement": "mortality at 0.1 µg/disc", "setting": "[5]; [6]", "value": 100, "unit": "%"}, {"measurement": "mortality at 1 µg/disc", "setting": "[5]; [6]", "value": 100, "unit": "%"}, {"measurement": "mortality at 10 µg/disc", "setting": "[5]; [6]", "value": 100, "unit": "%"}, {"measurement": "estimated LC50", "setting": "[5]; in vivo", "value": "7*10^−6 micrograms per well"}]}
{"molecule": "CCOC(=O)OC1=C(c2cc(C)ccc2C)C(=O)N[C@]12CC[C@@H](OC)CC2", "note": "[Spirotetramet]", "values": [{"measurement": "Product alone Kill %", "setting": "[1]; LC50 concentration", "value": 23.8, "unit": "%"}, {"measurement": "Product alone Kill %", "setting": "[1]; Spirotetramet 0.5X LC50", "value": 41.5, "unit": "%"}, {"measurement": "Product alone Kill %", "setting": "[2]; Spirotetramet 0.53X LC50", "value": 42.9, "unit": "%"}, {"measurement": "Product alone Kill %", "setting": "[2]; Spirotetramet 1.4X LC50", "value": 77.5, "unit": "%"}]}
{"molecule": "CNC(=O)c1cc(Cl)cc(C)c1NC(=O)c1cc(Br)nn1-c1ncccc1Cl", "note": "[Chlorantranilipole]", "values": [{"measurement": "Product alone Kill %", "setting": "[1]; LC50 concentration", "value": 3, "unit": "%"}, {"measurement": "Product alone Kill %", "setting": "[2]; LC50 concentration", "value": 9.1, "unit": "%"}]}
